Measured values taken from patent US12729388B2, “Methods and systems for producing cellulosic ethanol by biomass saccharification and fermentation” (ZHEJIANG HUAKANG PHARMACEUTICAL CO., LTD., priority 2021, dated 2026).

Test system: cellulase Cellic CTec 2
Assay: Validation experiment of the inhibitory effect of glucose and ethanol on the enzymatic hydrolysis reaction
Assay type: biochemical
Conditions: Group C: 50 g/L ethanol externally added, corn cob waste 15% dry substrate, cellulase 4% of dry substrate, pH 5.0~6.0, 50° C., 300 rpm
Method: Validation experiment of the inhibitory effect of glucose and ethanol on the enzymatic hydrolysis reaction. A reaction system was prepared using a citric acid buffer solution with a concentration of 0.1 mol/L. The citric acid buffer solution was added to a corn cob waste system in which a content of the biomass feedstock was 15% of a dry substrate, a pH of the mixture was maintained at 5.0~6.0, and cellulase […] a content of 4% of the dry substrate was added to the mixture to prepare three groups of 1 L reaction systems. [table] The three reaction systems were subjected to enzymatic hydrolysis at 50° C. for 72 hours under a condition of stirring at 300 rpm. Samples were taken from each reaction system every 12 hours to measure an amount of glucose released by the enzymatic hydrolysis, and results are shown in FIG. 3. FIG. 3 is a schematic diagram illustrating that glucose release concentration changes over time in an enzymatic hydrolysis system with external addition of glucose and ethanol according to some embodiments of the present disclosure.

CCO [ethanol]
amount of glucose released during the 72-hour enzymatic hydrolysis, lower than that of the control Group A: 8%
